The text below walks through data of patent publication US20210379066A1, “COMBINATIONS OF POSITIVE ALLOSTERIC MODULATORS AND NICOTINIC ACETYLCHOLINE RECEPTOR AGONISTS FOR TREATING OCULAR CONDITIONS” (Oyster Point Pharma, Inc., priority 2018, published 2021).

“Also recorded” adds a separate entry of the source. Like-named read-outs stand apart in the source and are kept apart here.

Type in all cases: cell-based
For assay [1], the target named is T1, human alpha4beta2 nAChRs (Homo sapiens, UniProt P17787+P43681).
T1 construct: expressed in transfected cells; host or cells: Xenopus laevis oocytes (cDNA injection)
T1 sequence (P43681 29-627 limits assumed): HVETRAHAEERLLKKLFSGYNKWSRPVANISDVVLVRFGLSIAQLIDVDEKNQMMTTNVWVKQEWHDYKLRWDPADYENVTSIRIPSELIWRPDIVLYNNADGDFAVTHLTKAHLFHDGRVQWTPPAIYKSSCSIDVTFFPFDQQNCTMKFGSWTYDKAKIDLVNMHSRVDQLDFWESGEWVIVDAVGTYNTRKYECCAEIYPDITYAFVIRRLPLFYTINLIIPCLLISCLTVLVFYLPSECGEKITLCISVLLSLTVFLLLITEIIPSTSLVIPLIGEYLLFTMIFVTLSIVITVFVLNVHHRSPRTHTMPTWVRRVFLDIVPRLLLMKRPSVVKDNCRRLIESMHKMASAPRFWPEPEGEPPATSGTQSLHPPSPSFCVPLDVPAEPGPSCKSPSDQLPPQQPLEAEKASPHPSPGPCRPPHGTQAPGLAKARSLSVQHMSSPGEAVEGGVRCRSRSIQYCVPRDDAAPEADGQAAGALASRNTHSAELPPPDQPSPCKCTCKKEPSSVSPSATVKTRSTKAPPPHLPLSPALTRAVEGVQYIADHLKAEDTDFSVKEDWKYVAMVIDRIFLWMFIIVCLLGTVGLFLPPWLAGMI
T1 sequence (P17787 26-502): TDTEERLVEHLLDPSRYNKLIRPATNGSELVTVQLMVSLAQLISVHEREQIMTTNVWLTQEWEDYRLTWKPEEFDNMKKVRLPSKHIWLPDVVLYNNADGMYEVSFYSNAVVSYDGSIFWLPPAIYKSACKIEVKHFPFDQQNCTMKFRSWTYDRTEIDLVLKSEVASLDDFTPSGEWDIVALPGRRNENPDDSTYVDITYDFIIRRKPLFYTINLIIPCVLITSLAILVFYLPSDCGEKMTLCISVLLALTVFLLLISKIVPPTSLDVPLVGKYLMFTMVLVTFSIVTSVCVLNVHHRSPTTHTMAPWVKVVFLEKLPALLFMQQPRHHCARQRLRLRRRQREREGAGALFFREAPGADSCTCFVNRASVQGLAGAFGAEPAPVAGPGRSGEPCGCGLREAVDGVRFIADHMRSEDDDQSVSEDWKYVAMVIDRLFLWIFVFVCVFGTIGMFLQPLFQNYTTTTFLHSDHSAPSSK
Description: Desensitization by sustained (1 hour) agonist exposure and recovery, without and with PAM, Xenopus oocytes (Example 1). As to conditions: no PAM; for desensitization / inhibition of the response by sustained agonist exposure: 1 hour exposure, 1 mM compound 1 hemi-galactarate dihydrate or 300 μM varenicline tartrate; for recovery of the response after wash: after 1 hour agonist exposure, 3 hours wash.

Assay [2] concerns the target T2, human alpha3alpha5beta4 nAChRs (Homo sapiens, UniProt P30532+P30926+P32297).
T2 construct: expressed in transfected cells; host or cells: Xenopus laevis oocytes (cDNA injection)
Briefly: Antagonistic activity / desensitization, cumulative exposure in the low concentration range (Example 2). To be noted: nanomolar range, up to 300 nM; dihydrate.

The target of assay [3] is T3, human alpha3beta4 nAChRs (Homo sapiens, UniProt P30926+P32297).
T3 construct: expressed in transfected cells; host or cells: Xenopus laevis oocytes (cDNA injection)
T3 sequence (P32297 32-505): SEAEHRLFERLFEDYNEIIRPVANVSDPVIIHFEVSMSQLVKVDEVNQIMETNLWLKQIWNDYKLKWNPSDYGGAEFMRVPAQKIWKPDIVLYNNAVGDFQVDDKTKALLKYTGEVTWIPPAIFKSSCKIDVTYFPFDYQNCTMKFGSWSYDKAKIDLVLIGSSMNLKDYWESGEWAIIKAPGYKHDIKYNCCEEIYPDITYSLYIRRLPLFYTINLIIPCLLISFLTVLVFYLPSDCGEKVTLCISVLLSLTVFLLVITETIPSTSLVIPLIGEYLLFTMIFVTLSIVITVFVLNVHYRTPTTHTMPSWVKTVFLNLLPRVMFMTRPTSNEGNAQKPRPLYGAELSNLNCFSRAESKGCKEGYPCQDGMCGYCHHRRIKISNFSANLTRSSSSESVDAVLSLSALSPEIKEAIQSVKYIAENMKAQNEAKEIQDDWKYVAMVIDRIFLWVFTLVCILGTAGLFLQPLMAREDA
T3 sequence (P30926 22-498): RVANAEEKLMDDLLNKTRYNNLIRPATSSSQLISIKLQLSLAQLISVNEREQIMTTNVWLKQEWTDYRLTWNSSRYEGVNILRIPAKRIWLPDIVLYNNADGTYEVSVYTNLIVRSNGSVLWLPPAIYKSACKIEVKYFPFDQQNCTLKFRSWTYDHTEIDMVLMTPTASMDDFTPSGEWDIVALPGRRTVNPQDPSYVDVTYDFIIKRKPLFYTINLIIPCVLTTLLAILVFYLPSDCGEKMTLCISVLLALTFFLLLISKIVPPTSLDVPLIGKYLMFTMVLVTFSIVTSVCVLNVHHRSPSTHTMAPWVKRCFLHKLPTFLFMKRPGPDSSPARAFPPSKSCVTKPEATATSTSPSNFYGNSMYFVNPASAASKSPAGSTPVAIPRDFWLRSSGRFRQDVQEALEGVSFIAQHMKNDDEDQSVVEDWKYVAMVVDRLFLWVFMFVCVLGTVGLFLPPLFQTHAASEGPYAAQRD
Described as above. As to conditions: concentrations up to 300 nM.

The target of a further assay is T4, human alpha7 nAChRs (Homo sapiens, UniProt P36544).
T4 construct: expressed in transfected cells; host or cells: Xenopus laevis oocytes (cDNA injection)
T4 sequence (P36544 23-502): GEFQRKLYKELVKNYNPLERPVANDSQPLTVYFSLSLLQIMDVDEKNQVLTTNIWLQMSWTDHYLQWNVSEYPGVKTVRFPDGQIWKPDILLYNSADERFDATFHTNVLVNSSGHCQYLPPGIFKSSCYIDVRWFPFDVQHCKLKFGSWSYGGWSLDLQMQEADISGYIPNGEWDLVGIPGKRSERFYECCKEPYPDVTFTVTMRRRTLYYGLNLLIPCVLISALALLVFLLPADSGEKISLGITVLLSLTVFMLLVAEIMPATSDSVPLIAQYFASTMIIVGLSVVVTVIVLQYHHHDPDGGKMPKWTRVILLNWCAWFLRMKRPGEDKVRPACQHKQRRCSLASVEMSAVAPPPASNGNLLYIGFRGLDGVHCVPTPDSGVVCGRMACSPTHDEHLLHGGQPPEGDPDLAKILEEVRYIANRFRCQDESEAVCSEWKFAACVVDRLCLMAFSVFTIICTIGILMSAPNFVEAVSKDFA
Described as above. As to conditions: concentrations up to 300 nM; dihydrate.

Assay [4] has as its target T1, human alpha4beta2 nAChRs. Described as above. To be noted: nanomolar range, up to 300 nM; dihydrate.
In assay [5] the target is T5, human nAChR alpha3alpha5beta4 (Homo sapiens, UniProt P30532+P30926+P32297).
T5 construct: expressed in transfected cells; host or cells: Xenopus laevis oocytes (cDNA injection)
T5 sequence (P32297 32-505): as the sequence (P32297 32-505) above
T5 sequence (P30532 23-468): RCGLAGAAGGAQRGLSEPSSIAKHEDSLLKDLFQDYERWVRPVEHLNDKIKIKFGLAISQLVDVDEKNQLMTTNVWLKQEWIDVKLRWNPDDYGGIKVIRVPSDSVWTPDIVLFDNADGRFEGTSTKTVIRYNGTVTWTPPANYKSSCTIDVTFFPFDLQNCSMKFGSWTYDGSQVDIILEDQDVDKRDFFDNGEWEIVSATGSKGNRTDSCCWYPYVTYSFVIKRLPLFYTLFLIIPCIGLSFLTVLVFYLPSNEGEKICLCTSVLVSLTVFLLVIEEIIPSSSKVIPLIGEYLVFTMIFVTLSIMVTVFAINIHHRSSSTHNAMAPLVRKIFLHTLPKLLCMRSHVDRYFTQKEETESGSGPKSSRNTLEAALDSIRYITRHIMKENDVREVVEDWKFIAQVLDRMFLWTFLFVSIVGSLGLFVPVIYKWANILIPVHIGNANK
T5 sequence (P30926 22-498): as the sequence (P30926 22-498) above
Briefly: Agonist activity, two-electrode voltage clamp in Xenopus oocytes (Examples 2 and 5). As to conditions: for EC50: Example 2; for agonist character: versus ACh response. The protocol: (§1) All experiments were carried out at human nAChRs expressed in Xenopus oocytes using the method of cDNA expression. Xenopus oocytes were prepared and injected using standard procedures.
(§2) Briefly, ovaries were harvested from Xenopus Laevis females that have been deeply anesthetized by cooling at 4° C. and Tricaine methanesulfonate (MS-222 at a concentration of 150 mg/L) in sodium bicarbonate (300 mg/L). Once anesthetized the animal was decapitated and pithed following the rules of animal rights from the Geneva canton. A small piece of ovary was isolated for immediate preparation while the remaining part was placed at 4° C. in a sterile Barth solution containing in mM NaCl 88, KCl 1, NaHCO32.4, HEPES 10, MgSO4.7H2O 0.82, Ca(NO3)2.4H2O 0.33, CaCl2.6H2O 0.41, at pH 7.4, and supplemented with 20 μg/ml of kanamycin, 100 unit/ml penicillin. All recordings were performed at 18° C. and cells superfused with OR2 medium containing in mM: NaCl 88, KCl 2.5, HEPES 5, CaCl2.2H2O 1.8, MgCl2.6H2O 1, pH 7.4.
(§3) Currents evoked by ACh or other agonists were recorded using an automated process equipped with standard two-electrode voltage-clamp configuration (TEVC). Data were captured and analyzed using a HiQScreen proprietary data acquisition and analysis software running under Matlab (Mathworks Inc.).
(§4) See Example 1. […] The test concentration of acetylcholine chloride was 1280 micromolar.
(§5) Injections of cDNAs encoding for the human alpha3beta4, alpha3alpha5beta4, alpha4beta2, and alpha7 were performed in at least 95 oocytes were performed using a proprietary automated injection and receptor expression examined at least two days later. Oocytes were poked with two electrodes and their membrane potential maintained, unless indicated, at −80 mV throughout the experiment.
(§6) A protocol to determine agonistic activity in the oocytes expressing the nAChRs was developed. The cells were exposed to a series of increasing concentrations of a compound agonist for 10 seconds each at two minute intervals. The current evoked from exposure to the agonist at each concentration was recorded. For oocytes expressing alpha7 nAChRs, exposure to the agonist was reduced to 5 seconds. This process was repeated for each agonist tested against each type of nAChR expressing cell.
(§7) To evaluate the agonistic properties of compound 1 hemi-galactarate dihydrate a protocol of brief exposures to a series of growing concentrations of compound 1 hemi-galactarate dihydrate was used.
(§8) Agonist Preparation: See Example 1. […] The test concentration of acetylcholine chloride was 1280 micromolar.
(§9) Experimental Procedures: Injections of cDNAs encoding for the human alpha3beta4, alpha3alpha5beta4, alpha4beta2, alpha4alpha6beta2, and alpha7 were performed in at least 95 oocytes using a proprietary automated injection device. Cellular receptor expression was examined at least two days later. Oocytes were poked with two electrodes and their membrane potential maintained, unless indicated, at −80 mV throughout the experiment.
as §6, with “developed. Oocytes expressing a nAChR subtype were exposed to a brief test pulse of acetylcholine (1280 micromolar) while the holding current and response was evaluated. Cells displaying robust currents were washed for 90 seconds.” for “developed.”, “were then” for “were”, “nAChR” for “compound”, “intervals. The nAChR agonist test concentrations were 0.1, 0.3, 1, 3, 10, 30, 100, 300 (micromolar).” for “intervals.”
Background: In two-electrode clamp one electrode senses voltage and the other passes current.

The target in the next assay is T6, human nAChR alpha3beta4 (Homo sapiens, UniProt P30926+P32297).
T6 construct: expressed in transfected cells; host or cells: Xenopus laevis oocytes (cDNA injection)
T6 sequence (P32297 32-505): as the sequence (P32297 32-505) above
T6 sequence (P30926 22-498): as the sequence (P30926 22-498) above
The description is as above. As to conditions: for agonist character: versus ACh response. The procedure:
as §1, §2, §3, §4, §5, §6, §7, §8, §9
as §6, with “developed. Oocytes expressing a nAChR subtype were exposed to a brief test pulse of acetylcholine (1280 micromolar) while the holding current and response was evaluated. Cells displaying robust currents were washed for 90 seconds.” for “developed.”, “were then” for “were”, “nAChR” for “compound”, “intervals. The nAChR agonist test concentrations were 0.1, 0.3, 1, 3, 10, 30, 100, 300 (micromolar).” for “intervals.”

The target in the next assay is T7, human nAChR alpha7 (Homo sapiens, UniProt P36544).
T7 construct: expressed in transfected cells; host or cells: Xenopus laevis oocytes (cDNA injection)
T7 sequence (P36544 23-502): as the sequence (P36544 23-502) above
The description is as above. To be noted: for agonist character: versus ACh response. The protocol: as §1, §2, §3, §4, §5, §6, §7, §8, §9
as §6, with “developed. Oocytes expressing a nAChR subtype were exposed to a brief test pulse of acetylcholine (1280 micromolar) while the holding current and response was evaluated. Cells displaying robust currents were washed for 90 seconds.” for “developed.”, “were then” for “were”, “nAChR” for “compound”, “intervals. The nAChR agonist test concentrations were 0.1, 0.3, 1, 3, 10, 30, 100, 300 (micromolar).” for “intervals.”

A further assay has as its target T8, human nAChR alpha4beta2 (Homo sapiens, UniProt P17787+P43681).
T8 construct: expressed in transfected cells; host or cells: Xenopus laevis oocytes (cDNA injection)
The assay is described as above. As to conditions: for EC50: Example 2; for effect on the subsequent ACh-evoked current: after exposure to the agonist concentration series; for agonist character: versus ACh response. The procedure:
as §1, §2, §3, §4, §5, §6, §7, §8, §9
as §6, with “developed. Oocytes expressing a nAChR subtype were exposed to a brief test pulse of acetylcholine (1280 micromolar) while the holding current and response was evaluated. Cells displaying robust currents were washed for 90 seconds.” for “developed.”, “were then” for “were”, “nAChR” for “compound”, “intervals. The nAChR agonist test concentrations were 0.1, 0.3, 1, 3, 10, 30, 100, 300 (micromolar).” for “intervals.”

Assay [6] has as its target T3, human alpha3beta4 nAChRs. Briefly: Sustained exposure to 300 μM varenicline tartrate and its recovery (Example 2).
The target in assay [7] is T1, human alpha4beta2 nAChRs. Described as above. As to conditions: 36 minutes wash.
Setting [8] is: listed as Compound 1 hemi-galactarate dihydrate, dihydrate.

T8 sequence (P43681 29-627 limits assumed): as the sequence (P43681 29-627 limits assumed) above
T8 sequence (P17787 26-502): as the sequence (P17787 26-502) above
T2 sequence (P32297 32-505): as the sequence (P32297 32-505) above
T2 sequence (P30532 23-468): as the sequence (P30532 23-468) above
T2 sequence (P30926 22-498): as the sequence (P30926 22-498) above

With `C(=C\[C@H]1CCNC1)/c1cncnc1` [compound 1 hemi-galactarate dihydrate, (R)-5-((E)-2-pyrrolidin-3-ylvinyl)pyrimidine hemigalactarate dihydrate], the “desensitization / inhibition of the response by sustained agonist exposure” value at human alpha4beta2 nAChRs [1] (dihydrate) is “no long-lasting desensitization; also recorded: only a modest inhibition; also recorded: does not cause a long-lasting inhibition; also recorded: no long-lasting inhibition”. The “recovery of the response after wash” value at human alpha4beta2 nAChRs [1] is recorded as “almost full recovery”. For the same compound, the “response after 18 hours recovery” value at human alpha4beta2 nAChRs [1] (after 1 hour exposure to 1 mM agonist) was “significant increase of the response”. In addition, the “inhibition of the ACh-evoked current by sustained exposure” value in [2] is on record as “marked inhibition; also recorded: inhibits in a concentration-dependent manner”; at human alpha3beta4 nAChRs [3] (dihydrate) it was “insensitive; also recorded: no significant inhibition”; at human alpha7 nAChRs it was “insensitive; also recorded: no significant inhibition”; on human alpha4beta2 nAChRs [4], “marked inhibition; also recorded: inhibits in a concentration-dependent manner”. Also, the “percent of the maximal ACh-evoked currents” value (in assay [5] (ACh 1280 micromolar); at human nAChR alpha3beta4 (ACh 1280 micromolar)) was “about 94%” each time. Further, the EC50 in assay [5] (read-out: EC50) is 32.1 ± 2.16 µM; on human nAChR alpha3beta4 (read-out: EC50) it was 42.1 ± 5.36 µM; on human nAChR alpha7 (Example 2, value for compound 1 salt only an estimation), 1260 ± 500 µM; on human nAChR alpha4beta2 (read-out: EC50) it was 48.8 ± 17.4 µM. Further, the agonist character entry is given as “almost as a full agonist” in assay [5] (setting [8]); “almost as a full agonist” on human nAChR alpha3beta4 (setting [8]); “poor agonist” on human nAChR alpha7 (dihydrate); “more potent agonist than ACh” on human nAChR alpha7 (setting [8]); “more potent agonist than ACh” on human nAChR alpha4beta2 (setting [8]). Further, the “percent of the maximal ACh-evoked current” value at human nAChR alpha7 (at 300 μM (300 micromolar) agonist, dihydrate) was 24%. The “evoked currents larger than the maximal ACh responses” value on human nAChR alpha4beta2 is given as “about 2 fold”. Also, the “effect on the subsequent ACh-evoked current” value at human nAChR alpha4beta2 (dihydrate) is “enhanced”.

Take “varenicline tartrate [reference compound]”: the recovery from desensitization entry is “absence of recovery; also recorded: cannot be recovered even after 36 minutes wash” at human alpha3beta4 nAChRs [6] (300 μM, 36 minutes wash) and “absence of recovery; also recorded: cannot be recovered even after 36 minutes wash” at human alpha4beta2 nAChRs [7]. For the same compound, the “response evoked by 300 μM agonist” value on human alpha3beta4 nAChRs [6] (applied during three minutes) was “larger current amplitude; also recorded: rather large response”. In addition, the “desensitization / inhibition of the response by sustained agonist exposure” value on human alpha4beta2 nAChRs [1] is listed as “profound inhibition; also recorded: major desensitization; also recorded: sustained inhibition; also recorded: major inhibition”. Also, on human alpha4beta2 nAChRs [1], the “recovery of the response after wash” value was “could not be removed even after a three-hour wash period; also recorded: no significant recovery; also recorded: absence of recovery”. For the same compound, the “inhibition of the ACh-evoked current by sustained exposure” value on human alpha3beta4 nAChRs [3] is “very modest effect; also recorded: no significant inhibition”. The EC50 result (in [5]; at human nAChR alpha3beta4; at human nAChR alpha4beta2) was “low micromolar range” throughout. For the same compound, the agonist character result is “partial agonist” in assay [5], “partial agonist” at human nAChR alpha3beta4, “partial agonist” at human nAChR alpha4beta2 and “very poor agonist” on human nAChR alpha4beta2 (listed as Varenicline tartrate). The “effect on the subsequent ACh-evoked current” value at human nAChR alpha4beta2 was “major inhibition”.

What is called EC50 is the concentration giving half of the maximal effect.
